Values quoted from earlier work as cited in paper PMC10275055, “Preventing recurrence in Sonic Hedgehog Subgroup Medulloblastoma using the OLIG2 inhibitor CT-179” (Research Square, 2023).

Tested on: OLIG2 dimerization and DNA binding
Set-up: method as in PMID 26517684, PMID 31953259
Conditions: cited from earlier work

CCN1CCCC(Nc2cc(C)nc(/N=C(\N)Nc3ccc(Cl)c(Cl)c3)n2)C1 (stereo not shown) [SKOG102]
effect on OLIG2 dimerization and DNA binding: disrupts OLIG2 dimerization and DNA binding
